Laboratory results from US20240415793A1, “Neuroprotective composition comprising pyruvate and citrate” (N.V. Nutricia, priority 2022, published 2024).

Columns and labels:
[1] = test system: neuroglial cell cultures; test: Seahorse assay (OCR/ECAR), 24-hour incubation with citrate under resting conditions; format: cell-based, rat; details: 0.8 mM Mg2+, vs control medium; for increase in basal glycolytic rates: FIG. 5A; for increase in OM-induced increase in glycolytic rates: FIG. 5B; for increase in FCCP-induced maximal glycolytic capacity: FIG. 5C
Description: The oxygen consumption rates (OCRs) and extracellular acidification rates (ECARs) of cells seeded in 96-well plates were monitored in real time at 37° C. in unbuffered Hanks Balanced Salt Solution (HBSS). The OCRs represent foremost mitochondrial respiration, and to a minor extent non-mitochondrial respiration. The ECARs relate foremost to the acidification of the medium with lactate produced through glycolysis and secreted by the cells into the medium (Table 1).
During the Seahorse run, both the OCRs and ECARs were measured simultaneously at baseline and following the injection of compounds by the Seahorse instrument (Table 1). HBSS was supplemented with glucose from the start and no glucose was injected through the Seahorse instruments. Measurements were repeated three times at baseline and three times after each compound injection.
After the initial baseline measurement, oligomycin (OM) was injected. OM blocks mitochondrial ATP synthase (complex V) and therefore decreases mitochondrial respiration. The OCRs after OM injection are due to the mitochondrial proton leak. They enable to determine whether the test nutrients impact the proton leak. The difference in OCRs at baseline and after OM injection is the amount of oxygen used for mitochondrial ATP synthesis at baseline. From this difference in OCR, the mitochondrial ATP production rates are calculated.
After OM, uncoupling agent carbonyl cyanide-p- trifluoromethoxyphenyl-hydrazon [FCCP] was injected which collapses the proton gradient across the inner mitochondrial membrane established during respiration and required for ATP synthesis. The cells attempt to restore the proton gradient following FCCP injection by maximizing respiration. The OCRs measured after FCCP injection therefore represent the maximal respiratory capacity of the mitochondria in the sample and enable to determine whether test nutrients impact the maximal respiratory capacity of the mitochondria.
Finally, Antimycin A, a complex III inhibitor, and Rotenone, a complex I inhibitor, were co-injected, both blocking the respiratory chain at different sites to entirely shut down mitochondrial respiration and determine the non-mitochondrial respiration. The latter is necessary to correct all OCRs and obtain the mitochondrial OCRs.
The ECARs were measured simultaneously at baseline and after OM and FCCP injection. The glycolytic ATP production was calculated from the baseline ECARs. The subsequent injection of OM pushed the cells to maximize their glycolytic ATP production to compensate for the loss in mitochondrial ATP production inflicted by OM. The further addition of FCCP drove mitochondrial respiration to a maximum and this eventually led to a further increase in glycolytic rates providing pyruvate into the TCA cycle to sustain maximal respiration. Therefore, the ECARs after FCCP injection were used to determine the maximum glycolytic capacity of the cells.
Further, the effects of a 24-hour incubation with citrate on glycolysis, mitochondrial respiration and total (glycolytic and mitochondrial) energy (ATP) production under resting conditions was assessed. Neuroglial cell cultures were grown in Neurobasal medium (NBM) supplemented with B27, high (25 mM) glucose, and high (0.8 mM) Mg2+ from DIV0 until DIV14. They were switched to NBM supplemented with B27, low (5 mM) glucose, and high (0.8 mM) Mg^2+ from DIV14 until DIV16. On DIV16, the medium was exchanged for DMEM (which is, in contrast to HBSS, not a nutrient-deprived medium) containing low (5 mM) glucose, high (0.8 mM) Mg^2+ and 500 μM or 1 mM citrate. On DIV17, one hour prior to the Seahorse run, the medium was replaced with unbuffered DMEM containing low (5 mM) glucose, high (0.8 mM) Mg^2+ and 500 μM or 1 mM citrate. The cells were left in this medium until the end of the run. Five repeats per condition were done.

[2] = test system: Phosphofructokinase 1 (PFK1); details: tissue- and brain-specific isoforms; cited from earlier work
[3] = test system: primary mouse neuroglial cultures; test: Cell death by high content imaging (Hoechst/NeuN nuclear shrinkage) after chronic hyperstimulation; format: cell-based; details: 1 mM
Description: To determine whether pyruvate and citrate protect neurons and glial cells from cell death induced by chronic electrical hyperstimulation. To assess protection from cell death induced by repeated hyperstimulation, primary mouse neuroglial cultures were assayed. Neuroglial cell cultures were prepared and grown until DIV14 as described above. From DIV14 until DIV17 they were switched to NBM containing B27, low (2.5 mM) glucose, and low (0.1 mM) Mg^2+ or high (0.8 mM) Mg^2+. Incubation in low (0.1 mM) Mg^2+ medium increases the neuronal firing rates, thus creating a state of chronic hyperstimulation. The test nutrients (pyruvate or citrate) were supplied through the medium from DIV14 until DIV17. On DIV17, the cell nuclei were stained with the Hoechst dye and co-immunolabelled for NeuN, a protein found only in the nuclei of neurons. The neuronal and non-neuronal cell nuclei were scored for nuclear shrinkage, a hallmark of cell death, by high content imaging.
To assess cell death by high content imaging the cells were fixed on DIV17 in 1% formaldehyde, permeabilized with ethanol and incubated with a rabbit polyclonal IgG antibody against NeuN, a neuron-specific protein localized to the nucleus, followed by detection with a secondary anti-rabbit IgG antibody linked to a red fluorescent label. Neuronal and non-neuronal cell nuclei were then counterstained with the blue fluorescent nuclear dye Hoechst. The nuclei were counted by a high content imager based on signal intensity and size. A cut-off value was applied to exclude objects of low signal intensity considered noise. Then, cut-off values were applied to exclude objects with an area below 30 μM^2 considered cell debris and objects with an area above 300 μM^2 considered cell clumps. A boundary of 60 μM^2 was set to distinguish between nuclei from alive and dead cells. Objects areas of 30 μM^2 to 60 μM^2 were counted as nuclei from dead cells, while object areas of 60 μM^2 to 300 μM^2 were counted as nuclei from alive cells. The counting was done at 20-fold magnification on a fixed number of optical fields per well. The counts of nuclei from dead neurons or dead cells were related to the number of alive neurons or alive cells, respectively, in the same well.
Neuroglial cell cultures were supplemented with 1 mM citrate from DIV14 until DIV17. On DIV17, total cell death and neuron-specific cell death were quantified by high content imaging. The total number of Hoechst positive objects or NeuN positive objects prior to applying cut-off values for the signal intensity and the area size was equal between the different groups (FIG. 10 A, D).

Compound: O=C(O)CC(O)(CC(=O)O)C(=O)O [citrate]
- increase in basal mitochondrial respiration ([1]; 500 μM and 1 mM citrate, FIG. 4B): ~60%
- increase in FCCP-induced maximal mitochondrial respiratory capacity ([1]; 500 μM and 1 mM citrate, FIG. 4C): 60-70%
- increase in basal mitochondrial and glycolytic ATP production ([1]; 500 μM and 1 mM citrate, DMEM 5 mM glucose, FIG. 4A): ~45%
- increase in basal glycolytic rates ([1]; 500 μM citrate): ~45%
- increase in OM-induced increase in glycolytic rates ([1]; 500 μM citrate): ~70%
- increase in FCCP-induced maximal glycolytic capacity ([1]; 500 μM citrate): ~75%
- increase in basal glycolytic rates ([1]; 1 mM citrate): ~20%
- increase in OM-induced increase in glycolytic rates ([1]; 1 mM citrate): ~30%
- increase in FCCP-induced maximal glycolytic capacity ([1]; 1 mM citrate): ~50%
- concentrations at which PFK1 isoforms are inhibited [2]: above 100 μM
- increase in dead cell counts from high Mg2+ to low Mg2+ medium ([3]; DIV14-DIV17, chronic hyperstimulation, FIG. 10C/11C): ~4%
- dead cell counts ([3]; DIV14-DIV17, high (0.8 mM) Mg2+ medium, FIG. 10C/11C): ~19%
- dead neuron count (neuron death) ([3]; DIV14-DIV17, high Mg2+ medium, FIG. 10F/11F): −1.5%
- dead cell counts ([3]; DIV14-DIV17, low (0.1 mM) Mg2+ medium, FIG. 10C/11C): ~23%
- dead neuron count (neuron death) ([3]; DIV14-DIV17, low Mg2+ medium, FIG. 10F/11F): ~1.4%
- effect on alive cell count ([3]; DIV14-DIV17, FIG. 10B/11B): not impacting
- effect on rise in neuron death induced by chronic hyperstimulation ([3]; DIV14-DIV17, FIG. 10F/11F): entirely blocked
